In one experiment the target is T1, Estrogen receptor (Homo sapiens, UniProt P03372).
T1 sequence (P03372 whole entry): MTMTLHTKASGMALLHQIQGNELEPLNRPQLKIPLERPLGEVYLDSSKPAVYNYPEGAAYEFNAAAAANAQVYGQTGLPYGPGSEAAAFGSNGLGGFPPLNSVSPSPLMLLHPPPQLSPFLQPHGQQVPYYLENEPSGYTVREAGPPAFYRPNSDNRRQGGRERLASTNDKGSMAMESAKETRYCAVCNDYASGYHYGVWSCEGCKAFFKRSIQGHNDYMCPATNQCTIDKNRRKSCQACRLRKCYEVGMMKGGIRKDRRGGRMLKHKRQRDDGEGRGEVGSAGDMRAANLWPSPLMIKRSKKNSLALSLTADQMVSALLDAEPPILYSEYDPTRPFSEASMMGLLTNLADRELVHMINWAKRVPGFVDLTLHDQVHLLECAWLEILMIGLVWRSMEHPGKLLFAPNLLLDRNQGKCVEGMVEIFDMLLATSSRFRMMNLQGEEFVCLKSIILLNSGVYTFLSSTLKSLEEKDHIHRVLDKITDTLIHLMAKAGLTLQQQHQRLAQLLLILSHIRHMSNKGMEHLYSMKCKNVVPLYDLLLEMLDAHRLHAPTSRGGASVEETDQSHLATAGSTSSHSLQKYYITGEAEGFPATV
Description: blockers of SRC-3 recruitment to ERα – biochemical, ELISA, streptavidin-HRP readout, orthogonal assay, confirmation (AID 1079). On the technique in general: In an ELISA, binding on a coated surface is turned into a signal by an enzyme label.

Experiment [1] can be described thus: NIH-3T3 fibroblast cytotoxicity, dose response, cytotoxicity control, cell-based, fluorescence, Alamar Blue, secondary assay (AID 2327).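 Further: NIH-3T3 mouse fibroblasts cultured with fluconazole at 8 µg/mL.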 The experiment is classed as functional. (In general: Alamar Blue is a resazurin reagent that responds to reducing activity.)
Experiment [2] in a line: luciferase reporter signal suppression in cells – H4 neuroglioma cells, luminescence, dose response (AID 1990). The experiment is classed as functional, cell-based.
A short description of experiment [3]: luciferase reporter signal reduction – luminescence, H4-C neuroglioblastoma cells, dose response (AID 2458).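 Further: H4 neuroglioblastoma cells stably carrying a luciferase reporter gene fusion.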 The experiment is classed as functional, cell-based. Background: Reporter assays use an easily measured gene product as a stand-in for the process of interest.
Experiment [4] concerns HEK293. Description: inhibition of NOD1-driven NF-kB reporter – cell-based, luminescence, uHTS, primary screen (AID 1578). To be noted: Homo sapiens. It is filed as functional.
In experiment [5] the test system is BJ. The experiment in a line: BJ-TERT fibroblast viability loss – cell-based, RAS-independent, luminescence, dose response (AID 1933). The experiment is classed as functional. As to conditions: Homo sapiens.
The test system of experiment [6] is HEK293. Description: cells. The experiment is classed as functional, cell-based. To be noted: Homo sapiens.
A further experiment in a line: cells. It is filed as functional, cell-based.
Experiment [7] can be described thus: Luminescence Cell-Based Dose Response HTS to Identify Inhibitors of 5'UTR Stem-Loop Driven Prion Protein mRNA Translation in H4 Neuroglioblastoma Cells. [Related pubchem assays: 1827 (Project Summary), 1813 (Primary HTS)]. The experiment is classed as functional.
Experiment [8] can be described thus: alpha-synuclein stem-loop luciferase translation blockers – H4 neuroglioma cells, luminescence, confirmation (AID 1988). It is filed as functional, cell-based.
Experiment [9] deals with BJ. Description: cells. It is filed as functional, cell-based. As to conditions: Homo sapiens.
Experiment [10] is described as follows: fluconazole-exposed Candida albicans growth modulators – fluorescence, retest, confirmation (AID 2467). It is filed as functional, cell-based.
In experiment [11] the test system is HEK293. The experiment in a line: cells. The experiment is classed as functional, cell-based. As to conditions: Homo sapiens. The source holds these as a separate data set.
Experiment [12] deals with Nucleotide-binding oligomerization domain-containing protein 2 (Homo sapiens, UniProt Q9HC29). Description: inhibition of NOD2-driven NF-kB reporter – cell-based, luminescence, uHTS, HEK293 (AID 1566). It is filed as functional.
Sequence of Nucleotide-binding oligomerization domain-containing protein 2 (Q9HC29 whole entry, the tested form may be a part): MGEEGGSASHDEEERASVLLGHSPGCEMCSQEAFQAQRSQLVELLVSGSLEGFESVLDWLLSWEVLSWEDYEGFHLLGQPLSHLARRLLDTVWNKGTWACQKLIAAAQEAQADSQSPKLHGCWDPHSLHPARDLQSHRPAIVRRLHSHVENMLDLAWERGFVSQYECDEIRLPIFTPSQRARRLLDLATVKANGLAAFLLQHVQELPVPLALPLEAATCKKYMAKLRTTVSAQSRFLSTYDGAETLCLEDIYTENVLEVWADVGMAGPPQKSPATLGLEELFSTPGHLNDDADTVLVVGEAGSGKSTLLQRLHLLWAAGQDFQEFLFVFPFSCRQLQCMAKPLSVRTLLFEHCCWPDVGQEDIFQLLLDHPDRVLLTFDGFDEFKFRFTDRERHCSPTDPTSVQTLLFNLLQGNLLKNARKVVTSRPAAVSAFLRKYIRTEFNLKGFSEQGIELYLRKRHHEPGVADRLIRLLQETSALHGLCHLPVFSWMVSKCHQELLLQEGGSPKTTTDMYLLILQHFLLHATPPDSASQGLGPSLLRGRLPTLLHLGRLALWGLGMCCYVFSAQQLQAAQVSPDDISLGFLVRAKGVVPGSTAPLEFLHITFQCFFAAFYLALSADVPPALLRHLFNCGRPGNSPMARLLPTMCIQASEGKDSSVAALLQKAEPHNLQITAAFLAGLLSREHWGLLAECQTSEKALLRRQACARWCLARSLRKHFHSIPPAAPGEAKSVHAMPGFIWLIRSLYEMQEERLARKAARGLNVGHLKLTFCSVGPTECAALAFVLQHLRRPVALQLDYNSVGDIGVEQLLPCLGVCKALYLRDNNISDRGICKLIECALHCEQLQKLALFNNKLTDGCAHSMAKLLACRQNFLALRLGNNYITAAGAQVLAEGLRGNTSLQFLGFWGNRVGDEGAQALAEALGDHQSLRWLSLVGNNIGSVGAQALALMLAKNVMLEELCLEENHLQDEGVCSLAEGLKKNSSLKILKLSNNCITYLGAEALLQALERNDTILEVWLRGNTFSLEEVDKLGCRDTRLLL
The test system of experiment [13] is HEK293. The experiment in a line: NOD2 signaling inhibitors in MDP-stimulated cells, cell-based, uHTS, luminescence (AID 2001). It is filed as functional. As to conditions: Homo sapiens.
Experiment [14] deals with HEK293. The experiment in a line: cells. It is filed as functional, cell-based. As to conditions: Homo sapiens. This is another data set of the same source.
In experiment [15] the target is T2, Serine/threonine-protein phosphatase (Candida dubliniensis (strain CD36 / CBS 7987 / NCPF 3949 / NRRLY-17841) (Yeast), UniProt B9W6M3).
T2 sequence (B9W6M3 whole entry): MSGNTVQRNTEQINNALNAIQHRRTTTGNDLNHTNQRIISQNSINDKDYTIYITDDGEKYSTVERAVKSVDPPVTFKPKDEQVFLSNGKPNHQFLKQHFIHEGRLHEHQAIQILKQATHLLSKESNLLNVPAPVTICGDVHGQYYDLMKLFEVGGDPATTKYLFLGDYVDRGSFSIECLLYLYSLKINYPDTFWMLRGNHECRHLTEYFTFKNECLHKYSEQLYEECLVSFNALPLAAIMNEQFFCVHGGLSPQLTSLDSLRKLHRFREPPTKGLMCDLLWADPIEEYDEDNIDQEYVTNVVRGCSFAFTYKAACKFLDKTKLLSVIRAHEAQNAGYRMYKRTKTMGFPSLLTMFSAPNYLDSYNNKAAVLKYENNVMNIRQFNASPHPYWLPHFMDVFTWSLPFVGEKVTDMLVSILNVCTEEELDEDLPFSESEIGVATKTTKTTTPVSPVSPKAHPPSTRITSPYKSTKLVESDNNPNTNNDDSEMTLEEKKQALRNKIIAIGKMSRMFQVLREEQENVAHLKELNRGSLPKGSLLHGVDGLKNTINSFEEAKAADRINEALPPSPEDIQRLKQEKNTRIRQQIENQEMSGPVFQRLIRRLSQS
Description: blockers of CaCl2-induced CDRE-lacZ signaling – S. cerevisiae, luminescence, secondary, dose response (AID 2388).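 Further: yeast reporter cells carrying a calcineurin-responsive lacZ construct stimulated with calcium chloride; luminescent beta-galactosidase reporter signal in whole cells rather than isolated phosphatase activity; potency for inhibition where a drop in reporter signal means calcineurin blockade.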 It is filed as functional, cell-based.

The test system of experiment [16] is BJ. The experiment in a line: BJ-TERT-LT-ST fibroblast viability loss – cell-based, RAS-independent, luminescence, dose response (AID 1935).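 Further: BJ fibroblasts immortalized with TERT plus LT and ST oncogenes.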 The experiment is classed as functional. To be noted: Homo sapiens.
A short description of experiment [17]: DRD fibroblast viability loss – cell-based, non-viral oncogenic, luminescence, dose response (AID 1934). The experiment is classed as functional. As to conditions: Homo sapiens.
Experiment [18] is described as follows: alpha-synuclein stem-loop translation blockers – luminescence, H4 neuroglioblastoma cells, dose confirmation, confirmation (AID 2454).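 Further: H4 neuroglioblastoma cells carrying an alpha-synuclein 5'UTR luciferase reporter; potency for inhibition of the luciferase signal.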 It is filed as functional, cell-based.
Experiment [19] concerns BJ. Description: growth inhibition of engineered Ras-driven BJ cells – cell-based, alamar blue fluorescence, cherrypicked samples, dose response (AID 2631).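 Further: confirmatory dose-response assay in RAS-dependent BJ fibroblasts engineered with TERT, LT and ST, with cytotoxicity read by fluorescence.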 The experiment is classed as functional. To be noted: Homo sapiens.
In experiment [20] the target is ATP-dependent molecular chaperone HSP82 (Candida albicans (strain WO-1) (Yeast), UniProt C4YTQ8). The experiment in a line: steroid-induced GRE reporter decrease in yeast – S. cerevisiae, luminescence, Hsp90 inhibitor project, dose response (AID 2400).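 Further: beta-galactosidase luminescence from glucocorticoid response element reporter as proxy for Hsp90 function; inhibitor potency where signal loss means Hsp90 inhibition.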 The experiment is classed as functional, cell-based.
Sequence of ATP-dependent molecular chaperone HSP82 (C4YTQ8 whole entry): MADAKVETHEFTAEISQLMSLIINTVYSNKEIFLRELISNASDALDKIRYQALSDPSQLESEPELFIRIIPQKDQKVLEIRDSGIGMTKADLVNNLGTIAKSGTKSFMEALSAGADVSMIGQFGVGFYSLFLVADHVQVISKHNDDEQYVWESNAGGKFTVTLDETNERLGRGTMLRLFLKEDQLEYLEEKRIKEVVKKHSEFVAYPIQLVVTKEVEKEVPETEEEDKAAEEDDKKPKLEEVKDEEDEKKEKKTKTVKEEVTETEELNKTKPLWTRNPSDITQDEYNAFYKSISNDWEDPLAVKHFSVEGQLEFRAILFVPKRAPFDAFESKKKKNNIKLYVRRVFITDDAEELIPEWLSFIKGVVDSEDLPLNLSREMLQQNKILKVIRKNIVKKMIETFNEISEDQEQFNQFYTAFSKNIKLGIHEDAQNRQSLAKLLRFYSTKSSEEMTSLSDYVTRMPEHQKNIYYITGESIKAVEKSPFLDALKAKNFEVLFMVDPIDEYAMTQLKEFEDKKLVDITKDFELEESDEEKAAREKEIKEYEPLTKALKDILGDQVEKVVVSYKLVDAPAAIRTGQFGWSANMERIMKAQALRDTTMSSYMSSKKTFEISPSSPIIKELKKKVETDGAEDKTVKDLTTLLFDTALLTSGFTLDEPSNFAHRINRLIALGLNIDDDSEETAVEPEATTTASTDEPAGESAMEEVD
For experiment [21], the target named is Epstein-Barr nuclear antigen 1 (Epstein-Barr virus (strain B95-8) (HHV-4) (Human herpesvirus 4), UniProt P03211). The experiment in a line: inhibition of EBV nuclear antigen 1 DNA binding – biochemical, fluorescence polarization, 1536-well, dose response (AID 2381).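 Further: fluorescence polarization of a Cy5 DNA probe bound by EBNA-1 protein.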 On the set-up: species or system human gammaherpesvirus 4.
Sequence of Epstein-Barr nuclear antigen 1 (P03211 whole entry): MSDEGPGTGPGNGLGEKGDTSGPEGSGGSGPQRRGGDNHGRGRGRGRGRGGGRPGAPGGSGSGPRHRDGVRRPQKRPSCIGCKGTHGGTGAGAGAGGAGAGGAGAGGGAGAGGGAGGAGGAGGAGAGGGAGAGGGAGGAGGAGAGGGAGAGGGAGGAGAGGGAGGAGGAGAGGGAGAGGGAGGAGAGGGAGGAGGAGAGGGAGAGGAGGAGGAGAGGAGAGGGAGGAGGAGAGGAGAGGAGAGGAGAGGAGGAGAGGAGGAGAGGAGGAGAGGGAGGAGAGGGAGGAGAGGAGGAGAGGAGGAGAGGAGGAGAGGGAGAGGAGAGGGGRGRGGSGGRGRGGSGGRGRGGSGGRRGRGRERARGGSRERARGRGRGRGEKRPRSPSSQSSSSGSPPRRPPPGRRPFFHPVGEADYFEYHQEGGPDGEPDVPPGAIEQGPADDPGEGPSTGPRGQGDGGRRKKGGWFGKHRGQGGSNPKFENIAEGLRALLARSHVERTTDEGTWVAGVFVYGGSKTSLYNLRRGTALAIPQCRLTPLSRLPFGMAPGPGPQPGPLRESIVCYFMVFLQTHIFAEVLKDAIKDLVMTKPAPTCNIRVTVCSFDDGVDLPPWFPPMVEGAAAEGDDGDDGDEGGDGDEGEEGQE
Experiment [22] addresses Lytic switch protein BZLF1 (Epstein-Barr virus (strain B95-8) (HHV-4) (Human herpesvirus 4), UniProt P03206). The experiment in a line: inhibition of BZLF1 ZTA DNA binding – biochemical, fluorescence polarization, Epstein-Barr virus, 1536-well, counter-screen for EBNA-1 inhibitor project, dose response (AID 2377).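 Further: fluorescence polarization of Cy5-labelled ZRE DNA probe bound by purified Zta.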 Set-up: species or system human gammaherpesvirus 4.
Experiment [23] concerns the target T3, Oxysterols receptor LXR-beta (Homo sapiens, UniProt P55055).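 Further: agonist activity at LXR measured by a cell-based luminescence readout across a dose range, run as a counterscreen for daf-12 agonists; HEK293 cells with Gal4-LXR fusion and GAL4-driven luciferase reporter; potency for activation of Gal4-LXR reporter so compounds are agonists.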
T3 sequence (P55055 whole entry): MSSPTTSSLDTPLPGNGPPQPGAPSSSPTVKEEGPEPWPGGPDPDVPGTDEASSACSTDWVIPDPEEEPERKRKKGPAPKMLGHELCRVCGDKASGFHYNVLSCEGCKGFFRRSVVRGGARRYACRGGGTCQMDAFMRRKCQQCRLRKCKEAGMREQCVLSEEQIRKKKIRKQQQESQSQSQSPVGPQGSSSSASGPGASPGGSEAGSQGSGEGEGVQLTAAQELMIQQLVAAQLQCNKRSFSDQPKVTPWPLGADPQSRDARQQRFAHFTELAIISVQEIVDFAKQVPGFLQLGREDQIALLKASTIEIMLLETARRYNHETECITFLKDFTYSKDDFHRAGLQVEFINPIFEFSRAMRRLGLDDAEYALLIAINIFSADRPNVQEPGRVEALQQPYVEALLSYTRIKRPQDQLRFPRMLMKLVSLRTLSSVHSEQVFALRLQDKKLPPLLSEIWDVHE
The experiment is classed as functional, cell-based.

Active and inactive are the calls of the source. For most assays here, no stated cut-off is given here; in the data, actives have a measured EC50 and inactives only a lower limit.

This is an account of results in ChEMBL document CHEMBL1201862, “PubChem BioAssay data set” (2004).

Sequence of Lytic switch protein BZLF1 (P03206 whole entry, the tested form may be a part): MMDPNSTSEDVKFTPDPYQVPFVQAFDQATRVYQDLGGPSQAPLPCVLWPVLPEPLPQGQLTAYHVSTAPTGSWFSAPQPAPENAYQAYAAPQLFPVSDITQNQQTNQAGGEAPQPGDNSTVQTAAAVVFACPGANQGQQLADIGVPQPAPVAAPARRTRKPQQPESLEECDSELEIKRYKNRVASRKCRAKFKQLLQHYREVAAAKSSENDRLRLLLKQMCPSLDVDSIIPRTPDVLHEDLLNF

Broadly, the IC50 is the concentration at which inhibition is half-maximal. `COC(=O)c1ccc2c(=O)n(CCCC(=O)N3CCN(c4cccc(Cl)c4)CC3)c(=S)[nH]c2c1`: the IC50 at Estrogen receptor is listed as 18.7 µM (not active).
As a reminder, the EC50 is the concentration needed to bring the measured effect to its halfway point. In the case of `COc1ccc(-c2nnc(NC(=O)c3ccc(S(=O)(=O)N4CCc5ccccc5C4)cc3)o2)cc1`, the EC50 was > 150 µM (inactive) in experiment [1]; < 0.1 µM (active) in experiment [2]; > 12 µM (not active) in experiment [3]; > 20 µM (inactive) in the experiment on HEK293 [4]; 92.6 µM (active) in the experiment with BJ [5]; > 12 µM (not active) in the experiment “cells”. Further, the EC50 in experiment [7] is < 0.1 µM (active); in experiment [8] it was 0.139 µM (active); with BJ [9], 132 µM (inconclusive); in experiment [10] it was 0.256 µM (active); in experiment [12] it was > 20 µM (inactive); in experiment [15], > 180 µM (inactive). Also, the EC50 with BJ [16] is > 150 µM (inconclusive); in experiment [17] it was 90.3 µM (active); in experiment [18], > 12 µM (not active); with BJ [19], 9.02 µM (active); in experiment [20] it was > 150 µM (inactive). Besides, the IC50 in the experiment with HEK293 [6] was > 20 µM (inactive); in the experiment with HEK293 [11] it was > 20 µM (inactive); with HEK293 [13] it was 19.6 µM (inactive); with HEK293 [14], > 20 µM (inactive).
Turning to `COc1ccc2oc(C(=O)Nc3nccs3)c(C)c2c1`, the results for the half-inhibitory concentration (IC50) in experiment [21] and in experiment [22] were 21 µM (not active) and > 111 µM (not active), respectively. Moreover, the EC50 in [23] is > 67.5 µM (inactive).
